Laboratory results from patent US10597649B2, “Tau protease compositions and methods of use” (Oligomerix, Inc., priority 2011, dated 2020).

Assays:
Tau 4R2N oligomer ladder = target: T1, Tau 4R2N oligomer ladder (Homo sapiens, UniProt P10636); experiment: FP-TAMRA serine hydrolase probe labeling of oligomerized tau 4R2N; type: biochemical; conditions: pre-treated with 0, 0.1, 1.0 or 10.0 mM AEBSF for 1 hr; 5 micromolar FP-TAMRA, 4 hrs
T1 construct: Stabilization buffer enables production of full length monomer, dimer and trimer for tau protease; made in house; host or cells: E. coli BL21 (DE3) Gold
T1 sequence (P10636 1-441 isoform P10636-8): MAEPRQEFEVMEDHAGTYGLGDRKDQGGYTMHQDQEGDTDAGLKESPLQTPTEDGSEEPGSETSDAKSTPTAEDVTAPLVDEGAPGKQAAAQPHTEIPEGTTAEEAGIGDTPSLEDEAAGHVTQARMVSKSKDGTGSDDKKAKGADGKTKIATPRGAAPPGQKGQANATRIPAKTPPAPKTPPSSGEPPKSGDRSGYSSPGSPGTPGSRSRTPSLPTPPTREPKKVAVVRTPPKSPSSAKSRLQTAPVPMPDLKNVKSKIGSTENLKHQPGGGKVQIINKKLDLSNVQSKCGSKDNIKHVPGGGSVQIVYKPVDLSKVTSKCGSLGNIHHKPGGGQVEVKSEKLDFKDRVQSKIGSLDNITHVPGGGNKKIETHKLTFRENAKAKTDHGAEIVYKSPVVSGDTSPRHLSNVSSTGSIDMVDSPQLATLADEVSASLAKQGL
Description: Tau 4R2N oligomer ladder was labeled with fluorophosphonate (FP) linked to a fluorescent TAMRA tag (ThermoFisher Scientific), a probe that is specific for active site serines in serine proteases. FP probes specifically label the serines of enzymatically-active serine hydrolases. The serine protease-specific inhibitor, AEBSF, was used in a dose-response study to determine whether tau was being specifically labeled with FP. […] Samples were run without reductant or with reductant as indicated. For labeling, 10 μg of tau 4R2N was labeled with 5 micromolar FP-TAMRA in 10 μL buffer (25 mM Tris-HCl pH 7.4, 150 mM NaCl, 0.5 mM EDTA, 0.1% NP-40, 5% glycerol) for 4 hrs at room temperature in the dark. Samples were pre-treated with 0, 0.1, 1.0, or 10.0 mM AEBSF for 1 hr at room temperature to block the active-site serine before the addition of the FP-TAMRA probe. Samples were divided in half and run with sample buffer with or without reductant as indicated;
4-(2-Aminoethyl)benzenesulfonyl fluoride hydrochloride (AEBSF) was prepared fresh in anhydrous DMSO. (Sigma Chemical Co.) A8456-≥97%, Molecular Weight: 239.69; 9 mg AEBSF/187.2 μL DMSO=200 mM. Serine hydrolase FP probes were equilibrated to room temperature in pouch with desiccant. Serine hydrolase FP probe was dissolved in 100 μL of DMSO to make a 0.1 mM stock solution. Samples were aliquotted in 5-μL/tubes and store in −80° C. freezer. […]

tau 4R2N trimer protease = target: T2, tau 4R2N trimer protease (Homo sapiens, UniProt P10636); experiment: Peptide assay (tau peptide 335-353, reverse-phase HPLC) used to screen serine protease inhibitors; type: biochemical; set-up: inhibition of cleavage of the peptide (FIG. 14D) / inhibition of cleavage of the peptide (FIG. 14F): dose or concentration left out as unconfirmed; conditions: 1 hr at room temperature before peptide substrate
T2 construct: Stabilization buffer enables production of full length monomer, dimer and trimer for tau protease; made in house; host or cells: E. coli BL21 (DE3) Gold
T2 sequence (P10636 1-441 isoform P10636-8): as above
Description: N-terminal sequencing of fragments using mass spectrometry identified autoproteolytic cut sites. In particular, cutting at the Lys340-Ser341 (340KS341) cut site occurred readily. Therefore, a 19-amino acid peptide corresponding to amino acids 335G to 353L of tau protein was synthesized that contained the KS cut site (340KS341). The reaction was monitored by reverse-phase high-pressure liquid chromatography (HPLC). […] An asterisk marks a non-specific contaminant that was used as a marker. […] 10 μg of tau peptide 335-353 ([…]) (SEQ ID NO:19) was custom synthesized by Genscript (Piscataway, N.J., USA) and 1 mg was dissolved in 1 mL of buffer (25 mM Tris-HCl pH 7.4). […] of peptide was incubated with 11 μg of tau trimer protease in 30 μL buffer 20 hr at 37° C. and analyzed by HPLC [SystemGold® 32Karat™ LC-CE System, Beckman Coulter, Inc., (Indianapolis, Ind.)] using a linear gradient of acetonitrile in 0.1% TFA 0-60% acetonitrile on an analytical C18 column (12.5 cm×2.1 mm, 5 μm, (Supelco, Bellefonte, Pa., USA). 30 μg of peptide was incubated without tau protease as a negative control and analyzed with the same method;
The peptide assay for tau 4R2N trimer activity described in FIG. 5 was used to screen a series of serine protease inhibitors. 1 mM AEBSF was incubated with tau 4R2N trimer for 1 hr at room temperature before addition of the peptide substrate. […] The asterisk indicates an artifactual peak unrelated to the peptide;

Aβ = conditions: clinical endpoint in Phase III; cited from earlier work
tau 4R2N trimer [1] = target: T3, tau 4R2N trimer (Homo sapiens, UniProt P10636); experiment: SDS titration for tau protease stabilization buffer; type: biochemical
T3 construct: Stabilization buffer enables production of full length monomer, dimer and trimer for tau protease; made in house; host or cells: E. coli BL21 (DE3) Gold
T3 sequence (P10636 1-441 isoform P10636-8): as above
Method: (§1) Purified recombinant human tau 4R2N was prepared as described in the flow chart. Monomer, dimer and trimer species were purified preparative electrophoresis from a tau 4R2N preparation that had formed oligomers. The electrophoresis buffer contained 0.1% SDS which inhibited the proteolytic activity. Fractions containing the tau species were buffer exchanged into 25 mM Tris-HCl pH 7.4 using and Amicon ultrafiltration device (Merck Millipore, Billerica, Mass.), which led to restoration of tau autoproteolytic activity. Protein concentrations of the preparations were determined using the BCA kit (ThemoFisher Scientific). Samples were run on a pre-cast 4-20% polyacrylamide Tris-HCl gel (BioRad, Hercules, Calif.) without using reductant in order to visualize the disulfide mediated oligomers. The gel was stained with GelCodeBlue Safe (ThermoFisher Scientific, Rockford, Ill.). Lane 1: 5.2 μg of tau 4R2N oligomer standard; Lane 2: 2 microliter of monomer fraction before buffer exchange; Lane 3: 0.5 μg monomer after buffer exchange; Lane 4: […] of dimer fraction before buffer exchange; Lane 5: 0.5 μg dimer after buffer exchange; Lane 6: 20 μL trimer fraction before buffer exchange; Lane 7: 0.5 μg trimer after buffer exchange.
This example describes the development and characterization of a stabilization buffer for preserving the activity of tau protease. […]

Tau 4R2N [2] = target: T4, Tau 4R2N (Homo sapiens, UniProt P10636); experiment: Autoproteolytic activity of purified tau monomer, dimer and trimer (SDS-PAGE); type: biochemical; conditions: for degradation in contamination control study (Example 3): 0.35 μg, overnight at 37° C., equal sample volumes from purification; for autoproteolytic activity (Example 1): after buffer exchange into 25 mM Tris-HCl pH 7.4, incubation at 37° C.
T4 construct: Stabilization buffer enables production of full length monomer, dimer and trimer for tau protease; made in house; host or cells: E. coli BL21 (DE3) Gold
T4 sequence (P10636 1-441 isoform P10636-8): as above
Method: This example describes the identification of the autoproteolytic activity of tau oligomers.
as §1
Tau 4R2N undergoes autoproteolytic cleavage (self-cleavage) when it forms disulfide-mediated oligomers upon incubation. Tau autoproteolyic activity co-purified with the dimer and trimer species. The amount of autoproteolytic activity was greatest with trimer which fragmented to the extent where no full size trimer remained after incubation. […] It was also shown that Tau autoproteolytic activity co-purified with dimer and trimer species. […] Full-length trimer digested completely into smaller fragments, and upon incubation, monomer formed an oligomeric ladder that produced a low level of autoproteolytic activity.
(§2) Monomer, Dimer, and Trimer of Tau 441 were purified under non-reducing conditions using continuous-elution electrophoresis. Fractions of each oligomer sample were pooled and buffer exchanged into stabilization buffer using an Amicon spin concentrator with a molecular weight cut-off of 30,000 daltons. 0.35 μg of each sample was incubated overnight at 37° C. while non-incubated control was kept on ice at 4° C. Next day, 2×SDS sample buffer without reductant was added to each sample and loaded onto a 4-20% gradient Tris-HCl Criterion Gel (Bio-Rad, Hercules, Calif.).
as §2, with “This example presents results from a contamination control study of tau protease. Monomer,” for “Monomer,”, “2× sodium dodecyl sulfate” for “2×SDS”
Lane 1—tau oligomer ladder standard; Lane 2—empty; Lane 3—purified monomer no incubation (fraction from purification plate); Lane 4—purified monomer without incubation; Lane 5—purified monomer with incubation; Lane 6—purified dimer without incubation; Lane 7—purified dimer with incubation; Lane 8—purified trimer without incubation; purified trimer with incubation overnight at 37° C. Lanes 3-9 were treated with sample buffer containing β-mercaptoethanol (BME).

Tau 4R2N [3] = target: T4, Tau 4R2N; experiment: NEM treatment of tau 4R2N monomer, incubation at 37° C., non-reducing SDS-PAGE; type: biochemical; conditions: 1 mM NEM for 2 hr
Method: FIG. 2 illustrates the formation of disulfide mediated tau oligomers preceded truncation and higher order aggregate formation. Tau 4R2N oligomers were purified by continuous-elution electrophoresis and monomer was further purified by pooling and buffer exchanging using spin columns with a molecular weight cut-off of 7000 Da into 25 mM Tris-HCl pH 7.4. A small amount of the monomer was treated with freshly-prepared NEM at a final concentration of 1 mM for 2 hr at ambient temperature. For incubations, monomer treated and untreated with NEM was allowed to incubate at 37° C. over the weekend (approximately 50 hrs), followed by separation on 4-20% sodium dodecyl sulfate (SDS)-polyacrylamide gel electrophoresis (PAGE) (SDS-PAGE) Tris-HCl gel (Bio-Rad Catalogue #345-0033 Hercules, Calif., USA) without reductant. Tau 4R2N—Disulfide-mediated oligomer formation preceded truncation, and truncation preceded higher-order aggregation. Aggregate formation was time dependent.

tau 4R2N trimer [4] = target: T3, tau 4R2N trimer; experiment: Tau 4R2N trimer incubated overnight with protease inhibitors, fragmentation read by SDS-PAGE; type: biochemical; conditions: overnight at 37° C., inhibitors at low and high concentrations; chymostatin 10 and 100 μM
Method: Tau 4R2N trimer was incubated overnight at 37° C. with and without serine-specific protease inhibitors (Sigma Aldrich, St. Louis, Mo.). The incubation volumes were 3.45 microliter at a final concentration of 0.145 mg/mL tau 4R2N trimer.
Tau 4R2N trimer was incubated overnight at 37° C. with and without serine-specific protease inhibitors at low and high concentrations.
Tau trimer protease was incubated with and without protease inhibitor cocktail overnight containing serine protease, amino-peptidase, cysteine protease and aspatic protease inhibitors.
For each sample, 0.45 μg of tau 4R2N trimer was incubated at 0.2 mg/mL overnight at 37° C. in the presence of various freshly prepared protease inhibitors. Non-incubated control was kept on ice overnight at 4° C. Next day, 2× sodium dodecyl sulfate sample buffer with reductant was added to each sample and loaded onto a 4-20% gradient Tris-HCl Criterion Gel (Bio-Rad).
Protease inhibitors targeted include serine proteases, amino-peptidases, cysteine proteases, metallo-proteases, and aspartic proteases.

Tau 4R2n 241-340 (TP-99) = target: T5, Tau 4R2n 241-340 (TP-99) (Homo sapiens, UniProt P10636); experiment: TP-99 peptide digest HPLC assay with added zinc chloride; type: biochemical; conditions: 100 μM zinc chloride, 44 hr at 37° C.
T5 construct: initiating methionine (N); made in house; host or cells: E. coli BL21 (DE3) Gold
T5 sequence (P10636 with tags, fused parts or gaps): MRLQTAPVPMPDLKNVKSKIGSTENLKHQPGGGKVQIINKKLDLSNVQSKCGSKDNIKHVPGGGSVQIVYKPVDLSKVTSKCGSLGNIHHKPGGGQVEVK
Method: As in FIG. 7, cleavage of the peptide substrate for tau protease Tau 4R2N (amino acids 335-353) was used to monitor activity using reverse-phase HPLC. […] The large peak in the lower trace indicates intact peptide which is greatly diminished in the upper trace and replaced with two smaller peaks F1 and F2 that represent fragments generated by TP-99. […] The asterisk indicates an artifact peak that is derived from the incubation tube. Ten microgram of Tau peptide 335-353 (OP-001) was incubated without TP-99, with 25 μL, TP-99 oligomer ladder, or with additional 100 μM zinc chloride, 44 hr at 37° C. in 30 μL buffer (25 mM Tris-HCl pH 7.4). Samples were analyzed by reverse phase HPLC (SystemGold® 32Karat™ LC-CE System, Beckman Coulter, Inc., (Indianapolis, Ind.)) using a linear gradient of acetonitrile in 0.1% TFA 0-60% acetonitrile on an analytical C18 column (12.5 cm×2.1 mm, 5 μm, (Supelco);

## Cl.NCCc1ccc(S(=O)(=O)F)cc1 [AEBSF, 4-(2-Aminoethyl)benzenesulfonyl fluoride hydrochloride]
Tau 4R2N oligomer ladder
  FP-TAMRA labeling of tau 4R2N: inhibited in a dose-dependent manner
Tau 4R2N trimer protease; 1 mM AEBSF
  inhibition of tau 4R2N trimer protease activity, peptide assay (FIG. 14A): inhibited

## gabexate mesylate
Tau 4R2N trimer protease; gabexate mesylate
  inhibition of cleavage of the peptide (FIG. 14F): did not significantly inhibit

## NCCCS(=O)(=O)O [Tramiprosate]
Aβ
  Status: Failed to meet

## CCCCCCCCCCCCOS(=O)(=O)[O-].[Na+] [SDS, sodium dodecyl sulfate]
Tau 4R2N trimer [1]; 0.3 μg tau 4R2N trimer, overnight at 37° C., 50 mM TrisHCl pH 7.4
  minimal inhibitory concentration for the enzymatic activity: 0.002%
Tau 4R2N trimer [1]; 0.1% SDS
  proteolytic activity in electrophoresis buffer: inhibited

## C[C@@H](C(=O)O)c1ccc(-c2ccccc2)c(F)c1 [R-flurbiprofen]
Aβ
  Status: Failed to meet

## tau 4R2N monomer: purified monomer species of recombinant human tau 4R2N
Tau 4R2N [2]
  degradation in contamination control study (Example 3): minimal cleavage
  autoproteolytic activity (Example 1): minor activity

## CC(C)[C@H](O)C(=O)N[C@@H](C)C(=O)N[C@@H]1C(=O)N(C)CCc2ccccc21 [Semagacestat]
Aβ
  Status: Failed to meet

## tau 4R2N dimer: purified disulfide-mediated dimer species of recombinant human tau 4R2N
Tau 4R2N [2]
  degradation in contamination control study (Example 3): minimal cleavage
  autoproteolytic activity (Example 1): showed autoproteolytic activity

## CCN1C(=O)C=CC1=O [NEM, N-ethylmaleimide]
Tau 4R2N [3]; then about 50 hrs at 37° C.
  disulfide-mediated oligomer formation: irreversibly inhibited
Tau 4R2N [3]; then incubation at 37° C.
  autoproteolytic activity: loss of autoproteolytic activity
  higher order aggregate formation: inhibition of higher order aggregate formation

## CC(C)C[C@H](NC(=O)[C@@H](NC(=O)N[C@@H](Cc1ccccc1)C(=O)O)[C@@H]1CCN=C(N)N1)C(=O)N[C@H](C=O)Cc1ccccc1 [Chymostatin]
Tau 4R2N trimer [4]
  inhibitory effect on tau 4R2N trimer, serine protease inhibitor panel (FIG. 12): greatest inhibitory effect
Tau 4R2N trimer protease; chymostatin
  inhibition of cleavage of the peptide (FIG. 14D): strongly inhibited

## [Cl-].[Cl-].[Zn+2] [zinc chloride]
Tau 4R2n 241-340 (TP-99)
  activity of TP-99 on tau peptide 335-353: increased the activity
